Measurements from patent US20240269135A1, “METHODS OF TREATING BREAST CANCER” (ASTRAZENECA AB, priority 2021, published 2024).

Assays:
[1] = test system: patients with HER2-negative early breast cancer with BRCA1/2 germline pathogenic/likely pathogenic variants; assay: OlympiA randomized double-blind phase 3 trial: invasive-disease-free, distant-disease-free and overall survival (incl. subgroup and sensitivity analyses); type: in vivo
Description: We conducted a randomized double-blind phase 3 trial involving patients with HER2-negative early breast cancer with BRCA1/2 germline pathogenic/likely pathogenic variants (gBRCA-P/LP-variant), and high-risk clinico-pathological factors, after local treatment and (neo)adjuvant chemotherapy. […] The primary endpoint was invasive disease-free-survival.
The trial was designed and conducted as a collaborative partnership between the Breast International Group (BIG) and the sponsors NRG Oncology in the United States (US) and AstraZeneca (AZ) outside the US.
Patients eligible for the trial harbored a gBRCA-P/LP variant defined by local or central testing and high-risk, HER2-negative primary breast cancer following definitive local treatment and neoadjuvant or adjuvant chemotherapy. […] Details of gBRCA-P/LP variant screening, local and central gBRCA-P/LP variant testing, and concordance is provided in Figure S2 and Table S2/S3 in Supplementary Appendix. Any gBRCA-P/LP variant eligibility adjudication was conducted by the trial Genetics Advisory Committee. Local estrogen-receptor, progesterone-receptor and HER2 testing results were used for determination of the hormone-receptor status (cut-point for positive was ≥1%) for stratification and for hormone-receptor-positive specific stage criteria for eligibility (details for receptor status central review and concordance for all patients recruited outside China are provided in Supplementary Appendix Tables S4 and S5).
Patients were required to have completed all local therapy including radiotherapy, which interacts with PARP inhibition, at least 2 and not more than 12 weeks before study entry. Patients had completed at least 6 cycles of neoadjuvant or adjuvant chemotherapy containing anthracyclines, taxanes or both agents. Platinum chemotherapy was allowed. Adjuvant bisphosphonates and adjuvant endocrine therapy in patients with hormone-receptor positive disease were given according to institutional guidelines. No chemotherapy after surgery was allowed in patients who received neoadjuvant chemotherapy.
Patients were stratified by hormone-receptor status (positive versus negative), NACT versus ACT and use of platinum chemotherapy for current breast cancer (yes versus no).
Following randomization, medical history and physical examination were performed on a 4-weekly basis for 24 weeks and then 3-monthly through year 2, 6-monthly assessments in years 3 to 5 and annually thereafter. […] Patients had mammogram and/or breast magnetic-resonance-imaging annually.
After a first event, patients were followed for first distant relapse (if not the first event), CNS metastases, loco-regional relapses, contralateral breast cancer, second primary malignancies and survival status.
In accordance with the standardized definitions for efficacy end points (STEEP) system,^21 the primary endpoint of invasive disease-free survival was defined as the time from randomization until the date of first occurrence of one of the following events: ipsilateral invasive breast tumor, locoregional invasive disease, distant recurrence, contralateral invasive breast cancer, second primary invasive cancer or death from any cause. Patients without a documented invasive disease-free survival event were censored at the date they were last known to be disease-free.
Efficacy analyses were based on the intention-to-treat (ITT) population. Survival functions were estimated by Kaplan-Meier method. The stratified Cox proportional-hazards model was used to estimate the hazard ratio and confidence intervals, the comparison of survival between treatment arms was tested by stratified log-rank test. […] Safety was assessed in the population who received at least one dose of study medication.

[2] = OlympiA exposure to study treatment, dose intensity, dose reductions and treatment discontinuations; type: in vivo, human; details: safety analysis set; 300 mg bd, N = 911
Procedure: A total of 1815 patients (911 in the olaparib-group and 904 in the placebo-group) were included in the safety analysis. The median number of days at 300 mg twice-daily protocol dose was 338 with percentage of intended dose being 94.8% in the olaparib-group, and 358 days and 98.9% in the placebo-group (Tables S11 to S13 in the Supplementary Appendix). Early treatment discontinuations, including discontinuations due to recurrence, occurred in 236 (25.9%) of the olaparib-group and 187 (20.7%) of the placebo-group (Figure S4 in the Supplementary Appendix).
In the olaparib-group, 228 patients (25.0%) required a dose reduction compared to 47 (5.2%) in the placebo-group. Adverse events requiring permanent discontinuation of the trial drug occurred in 90 patients (9.9%) in the olaparib-group and 38 patients (4.2%) in the placebo-group. […] (Table S15, S16 in the Supplementary Appendix). […] Any differences between the treatment arms are not considered clinically significant (Figure S5 in the Supplementary Appendix).

[3] = ITT, olaparib-group N=921, Kaplan-Meier, median follow-up 2.5 years
[4] = all deaths, ITT, olaparib N=921
[5] = percentage of the 59 deaths in the olaparib-group

O=C(c1cc(Cc2n[nH]c(=O)c3ccccc23)ccc1F)N1CCN(C(=O)C2CC2)CC1 [Olaparib, 4-[(3-{[4-(cyclopropane-carbonyl)piperazine-1-yl]carbonyl}-4-fluorophenyl)methyl]-2H-phthalazin-1-one]
Deaths without a prior IDFS event ([1]; ITT, olaparib N=921): 2 no. of patients
IDFS events ([1]; ITT, olaparib N=921): 106 no. of patients
Total number of deaths ([1]; ITT, olaparib N=921): 59 no. of patients
3-year distant-disease-free survival [1, 3]: 87.5%
3-year invasive-disease-free survival [1, 3]: 85.9%
difference in 3-year distant-disease-free survival, olaparib vs placebo ([1]; ITT, 95% CI 3.0%, 11.1%): 7.1%
difference in 3-year invasive-disease-free survival, olaparib vs placebo ([1]; ITT, 95% CI 4.5%, 13.0%): 8.8%
Invasive disease free survival Events (%) ([1]; Overall): 106 (11.5)/178 (19.5) events (%)
Primary cause of death: Adverse event [1, 4]: 1 no. of patients
Primary cause of death: Breast cancer [1, 4]: 55 no. of patients
Primary cause of death: Other [1, 4]: 3 no. of patients
Primary cause of death: Adverse event [1, 5]: 1.7%
Primary cause of death: Breast cancer [1, 5]: 93.2%
Primary cause of death: Other [1, 5]: 5.1%
Invasive disease free survival Events (%) ([1]; subgroup Age 50-64 years at randomisation): 22 (11.4)/41 (19.5) events (%)
Invasive disease free survival Events (%) ([1]; subgroup Age < 50 years at randomisation): 79 (11.3)/133 (19.8) events (%)
Invasive disease free survival Events (%) ([1]; subgroup Age ≥ 65 years at randomisation): 5 (17.2)/4 (12.5) events (%)
Invasive disease free survival Events (%) ([1]; subgroup BRCA1/2 both with no prior platinum therapy for current breast cancer): 0 (0.0)/0 (0.0) events (%)
Invasive disease free survival Events (%) ([1]; subgroup BRCA1/2 both with prior platinum therapy for current breast cancer): 0/0 (0.0) events (%)
Invasive disease free survival Events (%) ([1]; subgroup BRCA1 with no prior platinum therapy for current breast cancer): 43 (11.2)/91 (24.0) events (%)
Invasive disease free survival Events (%) ([1]; subgroup BRCA1 with prior platinum therapy for current breast cancer): 27 (15.5)/35 (19.6) events (%)
Invasive disease free survival Events (%) ([1]; subgroup BRCA2 with no prior platinum therapy for current breast cancer): 18 (10.2)/30 (17.8) events (%)
Invasive disease free survival Events (%) ([1]; subgroup BRCA2 with prior platinum therapy for current breast cancer): 4 (7.5)/8 (20.0) events (%)
Invasive disease free survival Events (%) ([1]; subgroup BRCA variant type: BRCA1): 70 (12.5)/126 (22.6) events (%)
Invasive disease free survival Events (%) ([1]; subgroup BRCA variant type: BRCA1/2): 0 (0.0)/0 (0.0) events (%)
Invasive disease free survival Events (%) ([1]; subgroup BRCA variant type: BRCA2): 22 (9.6)/38 (18.2) events (%)
Invasive disease free survival Events (%) ([1]; subgroup Bilateral oophorectomy prior to first dose): 14 (7.4)/38 (21.6) events (%)
Invasive disease free survival Events (%) ([1]; subgroup Ethnicity: Hispanic or Latino): 7 (20.6)/7 (29.2) events (%)
Invasive disease free survival Events (%) ([1]; subgroup Ethnicity: Not Hispanic or Latino): 88 (10.9)/153 (18.8) events (%)
Invasive disease free survival Events (%) ([1]; subgroup Ethnicity: Not known, not recorded or refused): 11 (13.4)/18 (22.8) events (%)
Invasive disease free survival Events (%) ([1]; subgroup Geographic region: Asia Pacific and South Africa): 30 (9.9)/55 (17.2) events (%)
Invasive disease free survival Events (%) ([1]; subgroup Geographic region: Europe): 62 (12.9)/95 (21.0) events (%)
Invasive disease free survival Events (%) ([1]; subgroup Geographic region: North America): 11 (9.0)/23 (17.4) events (%)
Invasive disease free survival Events (%) ([1]; subgroup Geographic region: South America): 3 (18.8)/5 (41.7) events (%)
Invasive disease free survival Events (%) ([1]; subgroup HR status: HR+/HER2−): 19 (11.3)/25 (15.9) events (%)
Invasive disease free survival Events (%) ([1]; subgroup HR status: TNBC): 87 (11.6)/153 (20.2) events (%)
Invasive disease free survival Events (%) ([1]; subgroup HR+/HER2− with adjuvant chemotherapy): 6 (9.4)/5 (7.7) events (%)
Invasive disease free survival Events (%) ([1]; subgroup HR+/HER2− with neoadjuvant chemotherapy): 13 (12.5)/20 (21.7) events (%)
Invasive disease free survival Events (%) ([1]; subgroup Jewish descent: No, not of Ashkenazi descent): 100 (11.4)/169 (19.3) events (%)
Invasive disease free survival Events (%) ([1]; subgroup Jewish descent: Yes, of Ashkenazi descent): 6 (14.6)/9 (25.0) events (%)
Invasive disease free survival Events (%) ([1]; subgroup No bilateral oophorectomy prior to first dose): 92 (12.6)/140 (18.9) events (%)
Invasive disease free survival Events (%) ([1]; subgroup No prior platinum/ACT): 28 (7.3)/57 (14.8) events (%)
Invasive disease free survival Events (%) ([1]; subgroup No prior platinum/HR+/HER2−): 13 (9.3)/22 (16.4) events (%)
Invasive disease free survival Events (%) ([1]; subgroup No prior platinum/NACT): 44 (15.1)/78 (26.8) events (%)
Invasive disease free survival Events (%) ([1]; subgroup No prior platinum/TNBC): 59 (11.1)/113 (20.8) events (%)
Invasive disease free survival Events (%) ([1]; subgroup Primary Study Database: Breast International Group (BIG)): 95 (11.7)/160 (19.9) events (%)
Invasive disease free survival Events (%) ([1]; subgroup Primary Study Database: NRG Oncology (US)): 11 (9.9)/18 (16.5) events (%)
Invasive disease free survival Events (%) ([1]; subgroup Prior Chemo: Adjuvant): 36 (7.8)/61 (13.4) events (%)
Invasive disease free survival Events (%) ([1]; subgroup Prior Chemo: Neoadjuvant): 70 (15.2)/117 (25.4) events (%)
Invasive disease free survival Events (%) ([1]; subgroup Prior Platinum: No): 72 (10.7)/135 (20.0) events (%)
Invasive disease free survival Events (%) ([1]; subgroup Prior Platinum: Yes): 34 (13.8)/43 (18.0) events (%)
Invasive disease free survival Events (%) ([1]; subgroup Prior platinum/ACT): 8 (10.3)/4 (5.7) events (%)
Invasive disease free survival Events (%) ([1]; subgroup Prior platinum/HR+/HER2−): 6 (21.4)/3 (13.0) events (%)
Invasive disease free survival Events (%) ([1]; subgroup Prior platinum/NACT): 26 (15.4)/39 (23.1) events (%)
Invasive disease free survival Events (%) ([1]; subgroup Prior platinum/TNBC): 28 (12.8)/40 (18.5) events (%)
Invasive disease free survival Events (%) ([1]; subgroup Race: Asian): 25 (9.7)/46 (16.9) events (%)
Invasive disease free survival Events (%) ([1]; subgroup Race: Black/African-American): 4 (21.1)/5 (17.2) events (%)
Invasive disease free survival Events (%) ([1]; subgroup Race: Other): 2 (11.8)/3 (20.0) events (%)
Invasive disease free survival Events (%) ([1]; subgroup Race: White): 75 (12.0)/124 (20.7) events (%)
Invasive disease free survival Events (%) ([1]; subgroup TNBC adjuvant cohort, pN status at surgery: Node negative): 13 (6.4)/22 (11.5) events (%)
Invasive disease free survival Events (%) ([1]; subgroup TNBC adjuvant cohort, pN status at surgery: Node positive): 15 (8.6)/31 (17.5) events (%)
Invasive disease free survival Events (%) ([1]; subgroup TNBC with adjuvant chemotherapy): 30 (7.6)/56 (14.4) events (%)
Invasive disease free survival Events (%) ([1]; subgroup TNBC with neoadjuvant chemotherapy): 57 (16.1)/97 (26.4) events (%)
Invasive disease free survival Events (%) ([1]; subgroup breast surgery prior to randomisation: Breast conservation): 20 (9.0)/46 (19.2) events (%)
Invasive disease free survival Events (%) ([1]; subgroup post neoadjuvant group: CPS + EG score of 2, 3 or 4): 55 (13.8)/96 (24.8) events (%)
Invasive disease free survival Events (%) ([1]; subgroup post neoadjuvant group: CPS + EG score of 5 or 6): 11 (50.0)/10 (66.7) events (%)
Invasive disease free survival Events (%) ([1]; subgroup prior chemotherapy: Anthracycline and taxane regimen): 101 (11.6)/168 (19.8) events (%)
Invasive disease free survival Events (%) ([1]; subgroup prior chemotherapy: Anthracycline regimen (without taxane)): 0 (0.0)/2 (15.4) events (%)
Invasive disease free survival Events (%) ([1]; subgroup prior chemotherapy: Taxane regimen (without Anthracycline)): 5 (11.6)/8 (15.4) events (%)
Number of patients with a dose reduction: 1 dose reduction (%) [2]: 170 (18.7) patients (%)
Number of patients with a dose reduction: 2 dose reductions (%) [2]: 57 (6.3) patients (%)
Number of patients with a dose reduction: 3 or more dose reductions (%) [2]: 1 (0.1) patients (%)
Patients with a dose reduction (%) [2]: 228 (25.0) patients (%)
Patients with no dose reduction (%) [2]: 683 (75.0) patients (%)
Reason for reduction: Administrative reasons (%) [2]: 2 (0.2) patients (%)
Reason for reduction: Adverse event (%) [2]: 222 (24.4) patients (%)
Reason for reduction: Dosing error (%) [2]: 6 (0.7) patients (%)
Reason for reduction: Other (%) [2]: 0 (0.0) patients (%)
Total number of dose reductions [2]: 287
